Literature values in US20020120149A1, “Substituted hydrazine derivatives” (priority 2000, published 2002).

Test system: NMDA receptor
Settings: in vitro at concentrations at which clinical efficacy is seen

## O=C(CCCN1CCC(O)(c2ccc(Cl)cc2)CC1)c1ccc(F)cc1 [haloperidol]
  increase in NMDA receptor activity: ~40%
